{"source": "paper PMC8614864", "about": "“Bioengineered System for High Throughput Screening of Kv1 Ion Channel Blockers” (Bioengineering, 2021)", "key": {"[1]": {"target": "KcsA-Kv1.3-RFP", "assay": "Direct titration of GFP-labeled toxins on spheroplasts by flow cytometry", "conditions": "slope by linear fitting of reduced data (maximum of normal distribution along GFP axis); one-site binding curve; 90–120 min incubation, 50 mM Tris–HCl pH 7.5 binding buffer; Mean ± SD (SD from fit, single dataset)"}, "[2]": {"test_system": "KcsA-Kv1.3-RFP", "assay": "Direct titration of GFP-labeled toxins on spheroplasts by flow cytometry", "assay_type": "binding", "description": "Spheroplasts were prepared according to the previously developed protocol. Briefly, E. coli cells (BL21 (DE3) strain) transformed with pET28a-KcsA-Kv1.3-RFP plasmid were cultivated in a minimal M9 medium at 37 °C up to OD560 = 0.8, then induced with 50 μM IPTG and further grown for 18 h. Cells were harvested by centrifugation (5000× g, 10 min, 4 °C), incubated in buffer A (10 mM Tris–HCl, pH 8.0, 0.5 m sucrose) containing lysozyme (20 μg/mL) for 7 min on ice, then diluted twofold with buffer B (10 mM Tris–HCl, pH 8.0, 0.3 mM ethylenediamine tetraacetic acid) and further incubated for 20 min. Then MgCl2 was added to a final concentration of 10 mM to stabilize the spheroplasts. Obtained in this way, the spheroplast suspension has OD560 of about 0.5 and was diluted for binding assay as described further.\nFor ligand binding analysis, a series of ligand dilutions were prepared in 12 × 75 mm flow cytometry test tubes. For this, 45 µL of toxin solution with a ten times higher concentration than the maximal concentration on titration curve was prepared. This solution was serially diluted with 3.16-fold step (13.9 µL of toxin solution + 30 µL buffer). These toxin dilutions were supplemented with 270 µL of spheroplast suspension at 10^6 cells/mL to give 300 µL final reaction mixtures. For analysis of displacement of GFP-labeled toxins by unlabeled toxins, spheroplast suspensions were supplemented with 1.1× concentration of GFP-labeled toxin before mixing with unlabeled toxin dilutions. All dilutions were made in a binding buffer: 0.25 M sucrose, […], 2 mM KCl, 50 mM NaCl, 10 mM MgCl2, 0.2% BSA and 50 mM Tris–HCl, pH 7.5.\nTo ensure equilibrium conditions, we analyzed samples after 90–120 min of incubation without removing toxins. Data acquisition was carried out with FC-500 flow cytometer (Beckman Coulter, Brea, CA, USA) using 488 nm excitation for both GFP and RFP and fluorescence detection with FL1 (505–545 nm) and FL3 (610–630 nm) channels for GFP and RFP, respectively. To minimize background fluorescence, samples were run at low speed that gave approx. 100–500 events/s. Events were triggered by side scatting (SSC) so that RFP-labeled cells constituted approx. 30% of events (Figure 2). Remaining events were also present in the samples of filtered binding buffer without cells, so were likely to be related to system noise (either electronic or optical) but not to the dim spheroplasts.\nAutomated data analysis was performed by a dedicated script after pre-processing with commercial software. The script was available in user-friendly Jupyter notebook format where data were processed stepwise, and user input-output was realized through an internet browser. This script is designed to process multiple datasets at once and can be easily adjusted for someone’s actual needs.\nInitial preprocessing was done with used FlowJo v10 software (Treestar Inc., Wilmington, DE, USA). This was used for gating on cells by forward and side scatter, followed by gating of RFP-positive events (Figure 1) and exporting of gated data in FCS format. This step was preferable since it allowed one to convert data into a conventional FCS format (our flow cytometer import data in LMD file format) and to filter out off-target events such as system noise, cell debris, clumped and untransfected cells (without Kv1.3-RFP in our case). We also created a script for this preprocessing but found it more complicated and less robust than commercial software.\nFiltered data were processed stepwise by a dedicated script, written in the Python programming language and available as a Jupyter notebook for running either on a local machine or in a kaggle data cloud (https://www.kaggle.com/georgesharonov/fcsgroupfit, accessed and executed on 14 November 2021). Data processing workflow was designed for high throughput analysis by processing all similar data in a single script execution. The processing steps were detailed within the notebook. […]"}}, "note": "Where two headings read alike, the source gives them in different places."}
{"substance": "ChTx-GFP: hybrid protein, ChTx tagged N-terminally with eGFP, analogous to AgTx2-GFP; fluorescent probe", "values": [{"measurement": "Kd", "setting": "[1]", "result": "740 ± 170", "unit": "pM"}, {"measurement": "Slope, nonspecific binding", "setting": "[2]; 1 nM labeled toxin + 316 nM ChTx, fitting of all events", "result": 0.47}, {"measurement": "Slope, nonspecific binding", "setting": "[2]; 1 nM labeled toxin + 316 nM ChTx, fitting of reduced data", "result": 0.25}, {"measurement": "Slope (proportional to occupied receptor fraction)", "setting": "[2]; 1 nM labeled toxin, fitting of all events", "result": 0.55}, {"measurement": "Slope (proportional to occupied receptor fraction)", "setting": "[2]; 1 nM labeled toxin, fitting of reduced data", "result": 0.56}, {"measurement": "Slope, nonspecific binding", "setting": "[2]; 10 nM labeled toxin + 316 nM ChTx, fitting of all events", "result": 0.53}, {"measurement": "Slope, nonspecific binding", "setting": "[2]; 10 nM labeled toxin + 316 nM ChTx, fitting of reduced data", "result": 0.21}, {"measurement": "Slope (proportional to occupied receptor fraction)", "setting": "[2]; 10 nM labeled toxin, fitting of all events", "result": 0.87}, {"measurement": "Slope (proportional to occupied receptor fraction)", "setting": "[2]; 10 nM labeled toxin, fitting of reduced data", "result": 0.84}, {"measurement": "Kd", "setting": "[2]; binding curve of direct titration, reduced data, nonspecific binding subtracted, flow cytometry, read-out: Kd (printed in Figure 4A)", "result": 735, "unit": "pM"}]}
